Data published in PubChem BioAssay (NCI).
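96-well plates; 48 h exposure; 5 concentrations. Endpoints by linear interpolation between flanking doses. Not reached: highest tested concentration assigned. GI50: concentration for 50% inhibition of growth. Definition used: TGI = concentration required for complete inhibition of growth.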

Tests used:
Test in all cases: NCI tumour cell line growth inhibition, 48 h
OVCAR-3 ovarian = tested on: OVCAR-3 ovarian
MALME-3M melanoma = tested on: MALME-3M melanoma
SK-MEL-28 melanoma = tested on: SK-MEL-28 melanoma
IGROV1 ovarian = tested on: IGROV1 ovarian
OVCAR-5 ovarian = tested on: OVCAR-5 ovarian
SR leukemia = tested on: SR leukemia
ACHN renal = tested on: ACHN renal
SNB-19 CNS = tested on: SNB-19 CNS
LOX IMVI melanoma = tested on: LOX IMVI melanoma
UACC-62 melanoma = tested on: UACC-62 melanoma
NCI-H460 lung = tested on: NCI-H460 lung
786-0 renal = tested on: 786-0 renal
NCI/ADR-RES ovarian = tested on: NCI/ADR-RES ovarian
SNB-75 CNS = tested on: SNB-75 CNS
HS 578T breast = tested on: HS 578T breast
RPMI-8226 leukemia = tested on: RPMI-8226 leukemia
NCI-H226 lung = tested on: NCI-H226 lung
K-562 leukemia = tested on: K-562 leukemia
MDA-MB-435 = tested on: MDA-MB-435
COLO 205 colon = tested on: COLO 205 colon
SF-539 CNS = tested on: SF-539 CNS
RXF 393 renal = tested on: RXF 393 renal
T-47D breast = tested on: T-47D breast
SW-620 colon = tested on: SW-620 colon
HOP-62 NSCLC = tested on: HOP-62 NSCLC
OVCAR-4 ovarian = tested on: OVCAR-4 ovarian
PC-3 prostate = tested on: PC-3 prostate
KM12 colon = tested on: KM12 colon
MOLT-4 leukemia = tested on: MOLT-4 leukemia
HCT-116 colon = tested on: HCT-116 colon
UO-31 renal = tested on: UO-31 renal
NCI-H23 lung = tested on: NCI-H23 lung
SN12C renal = tested on: SN12C renal
HCC-2998 colon = tested on: HCC-2998 colon
HOP-92 NSCLC = tested on: HOP-92 NSCLC
U251 CNS = tested on: U251 CNS
SF-268 CNS = tested on: SF-268 CNS
SF-295 CNS = tested on: SF-295 CNS
CCRF-CEM leukemia = tested on: CCRF-CEM leukemia
MDA-MB-231 breast = tested on: MDA-MB-231 breast
DU-145 prostate = tested on: DU-145 prostate
HCT-15 colon = tested on: HCT-15 colon
BT-549 breast = tested on: BT-549 breast
SK-MEL-5 melanoma = tested on: SK-MEL-5 melanoma
A498 renal = tested on: A498 renal
MCF7 breast = tested on: MCF7 breast
OVCAR-8 ovarian = tested on: OVCAR-8 ovarian
TK-10 renal = tested on: TK-10 renal
A549 NSCLC = tested on: A549 NSCLC
UACC-257 melanoma = tested on: UACC-257 melanoma
CAKI-1 renal = tested on: CAKI-1 renal
SK-MEL-2 melanoma = tested on: SK-MEL-2 melanoma
HT29 colon = tested on: HT29 colon
NCI-H522 lung = tested on: NCI-H522 lung
M14 melanoma = tested on: M14 melanoma
SK-OV-3 ovarian = tested on: SK-OV-3 ovarian

COc1ccc(/C=C/C(=O)c2cccc(B(O)O)c2)cc1O
GI50 (OVCAR-3 ovarian): 3.44 µM | TGI (OVCAR-3 ovarian): 10.9 µM | GI50 (MALME-3M melanoma): 15.3 µM | TGI (MALME-3M melanoma): 32.1 µM | GI50 (SK-MEL-28 melanoma): 6.72 µM | TGI (SK-MEL-28 melanoma): > 100 µM | GI50 (IGROV1 ovarian): 5.39 µM | TGI (IGROV1 ovarian): 33 µM | GI50 (OVCAR-5 ovarian): 9.25 µM | TGI (OVCAR-5 ovarian): 31.6 µM | GI50 (SR leukemia): 2.56 µM | TGI (SR leukemia): 30.3 µM | GI50 (ACHN renal): 4.59 µM | TGI (ACHN renal): 71.1 µM | GI50 (SNB-19 CNS): 5.1 µM | TGI (SNB-19 CNS): 27.3 µM | GI50 (LOX IMVI melanoma): 2.07 µM | TGI (LOX IMVI melanoma): 5.37 µM | GI50 (UACC-62 melanoma): 3.83 µM | TGI (UACC-62 melanoma): 17.3 µM | GI50 (NCI-H460 lung): 3.11 µM | TGI (NCI-H460 lung): 11.5 µM | GI50 (786-0 renal): 4.33 µM | TGI (786-0 renal): 40.8 µM | GI50 (NCI/ADR-RES ovarian): 3.09 µM | TGI (NCI/ADR-RES ovarian): 28.6 µM | GI50 (SNB-75 CNS): 2.74 µM | TGI (SNB-75 CNS): 12.2 µM | GI50 (HS 578T breast): 2.28 µM | TGI (HS 578T breast): 8.87 µM | GI50 (RPMI-8226 leukemia): 3.39 µM | TGI (RPMI-8226 leukemia): 33.3 µM | GI50 (NCI-H226 lung): 4.79 µM | TGI (NCI-H226 lung): > 100 µM | GI50 (K-562 leukemia): 1.33 µM | TGI (K-562 leukemia): > 100 µM | GI50 (MDA-MB-435): 1.89 µM | TGI (MDA-MB-435): 4.57 µM | GI50 (COLO 205 colon): 13 µM | TGI (COLO 205 colon): 27.5 µM | GI50 (SF-539 CNS): 2.4 µM | TGI (SF-539 CNS): 8.46 µM | GI50 (RXF 393 renal): 2.8 µM | TGI (RXF 393 renal): 11.4 µM | GI50 (T-47D breast): 3.01 µM | TGI (T-47D breast): 16 µM | GI50 (SW-620 colon): 2.79 µM | TGI (SW-620 colon): 11.5 µM | GI50 (HOP-62 NSCLC): 4.24 µM | TGI (HOP-62 NSCLC): 18.6 µM | GI50 (OVCAR-4 ovarian): 7.91 µM | TGI (OVCAR-4 ovarian): 21 µM | GI50 (PC-3 prostate): 6.18 µM | TGI (PC-3 prostate): 32.9 µM | GI50 (KM12 colon): 2.51 µM | TGI (KM12 colon): 6.47 µM | GI50 (MOLT-4 leukemia): 4.04 µM | TGI (MOLT-4 leukemia): > 100 µM | GI50 (HCT-116 colon): 2.55 µM | TGI (HCT-116 colon): 10.7 µM | GI50 (UO-31 renal): 3.63 µM | TGI (UO-31 renal): 17.4 µM | GI50 (NCI-H23 lung): 4.67 µM | TGI (NCI-H23 lung): 22.7 µM | GI50 (SN12C renal): 3.26 µM | TGI (SN12C renal): 25.7 µM | GI50 (HCC-2998 colon): 2.67 µM | TGI (HCC-2998 colon): 7.47 µM | GI50 (HOP-92 NSCLC): 1.42 µM | TGI (HOP-92 NSCLC): 29.7 µM | GI50 (U251 CNS): 3.41 µM | TGI (U251 CNS): 13.2 µM | GI50 (SF-268 CNS): 3.46 µM | TGI (SF-268 CNS): 19.9 µM | GI50 (SF-295 CNS): 3.17 µM | TGI (SF-295 CNS): 13.2 µM | GI50 (CCRF-CEM leukemia): 3.13 µM | TGI (CCRF-CEM leukemia): 14.1 µM | GI50 (MDA-MB-231 breast): 3.44 µM | TGI (MDA-MB-231 breast): > 100 µM | GI50 (DU-145 prostate): 2.8 µM | TGI (DU-145 prostate): 7.88 µM | GI50 (HCT-15 colon): 2.44 µM | TGI (HCT-15 colon): 12.3 µM | GI50 (BT-549 breast): 2.82 µM | TGI (BT-549 breast): 14.2 µM | GI50 (SK-MEL-5 melanoma): 3.76 µM | TGI (SK-MEL-5 melanoma): 14.9 µM | GI50 (A498 renal): 2.31 µM | TGI (A498 renal): 11.2 µM | GI50 (MCF7 breast): 2.21 µM | TGI (MCF7 breast): 12.4 µM | GI50 (OVCAR-8 ovarian): 3.82 µM | TGI (OVCAR-8 ovarian): > 100 µM | GI50 (TK-10 renal): 4.4 µM | TGI (TK-10 renal): 24.1 µM | GI50 (A549 NSCLC): 3.35 µM | TGI (A549 NSCLC): 46.9 µM | GI50 (UACC-257 melanoma): 10.6 µM | TGI (UACC-257 melanoma): 30.9 µM | GI50 (CAKI-1 renal): 3.43 µM | TGI (CAKI-1 renal): 19.3 µM | GI50 (SK-MEL-2 melanoma): 15.6 µM | TGI (SK-MEL-2 melanoma): 58.9 µM | GI50 (HT29 colon): 9.77 µM | TGI (HT29 colon): 44.4 µM | GI50 (NCI-H522 lung): 3.33 µM | TGI (NCI-H522 lung): 13.5 µM | GI50 (M14 melanoma): 4.23 µM | TGI (M14 melanoma): 18.6 µM | GI50 (SK-OV-3 ovarian): 6.14 µM | TGI (SK-OV-3 ovarian): > 100 µM
